Measured values from ChEMBL document CHEMBL3272212, “Synthesis and antimineralocorticoid activities of some 6-substituted 7 alpha-carboalkoxy steroidal spirolactones” (1977).

How the values were obtained:
Assay type in all cases: functional, Urine
[1] = tested on: Rattus norvegicus; assay: Inhibition of deoxycorticosterone acetate-induced urinary electrolyte effects in intragastrically dosed adrenalectomized rat assessed as increase in Na:K ratio
[2] = tested on: Rattus norvegicus; assay: Inhibition of deoxycorticosterone acetate-induced urinary electrolyte effects in sc dosed adrenalectomized rat assessed as increase in Na:K ratio
[3] = tested on: Rattus norvegicus; assay: Ratio of MED for Inhibition of deoxycorticosterone acetate-induced urinary electrolyte effects in intragastrically dosed adrenalectomized rat to MED for deoxycorticosterone acetate-induced urinary electrolyte effects in sc dosed adrenalectomized rat

SMILES | MED [1] | MED [2] | Ratio [3]
COC(=O)[C@H]1[C@@H]2[C@H](CC[C@@]3(C)[C@H]2CC[C@@]32CCC(=O)O2)[C@@]2(C)CCC(=O)C=C2[C@@H]1O | 2.12 mg | 0.42 mg | 
[2H][C@H]1C2=CC(=O)CC[C@]2(C)[C@H]2CC[C@@]3(C)[C@@H](CC[C@@]34CCC(=O)O4)[C@@H]2[C@@H]1C(=O)OC | 1 mg | 0.3 mg | 
COC(=O)[C@H]1[C@@H]2[C@H](CC[C@@]3(C)[C@H]2CC[C@@]32CCC(=O)O2)[C@@]2(C)CCC(=O)C=C2[C@@H]1Br | 1.05 mg | 0.58 mg | 
COC(=O)[C@H]1[C@@H]2[C@H](CC[C@@]3(C)[C@H]2CC[C@@]32CCC(=O)O2)[C@@]2(C)CCC(=O)C=C2[C@@H]1C | 0.58 mg | 0.2 mg | 
CC(C)OC(=O)[C@H]1[C@@H]2[C@H](CC[C@@]3(C)[C@H]2CC[C@@]32CCC(=O)O2)[C@@]2(C)CCC(=O)C=C2[C@@H]1O | 1.81 mg | 0.28 mg | 6
C=C1C2=CC(=O)CC[C@]2(C)[C@H]2CC[C@@]3(C)[C@@H](CC[C@@]34CCC(=O)O4)[C@@H]2[C@@H]1C(=O)OC | >2.4 mg | >2.4 mg | 
COC(=O)[C@H]1[C@@H]2[C@H](CC[C@@]3(C)[C@H]2CC[C@@]32CCC(=O)O2)[C@@]2(C)CCC(=O)C=C2[C@H]1C | >2.4 mg | 0.47 mg | 
CC(=O)S[C@@H]1CC2=CC(=O)CC[C@]2(C)[C@H]2CC[C@@]3(C)[C@@H](CC[C@@]34CCC(=O)O4)[C@H]12 [SPIRONOLACTONE] | 0.48 mg | 0.33 mg | 
